From ChEMBL document CHEMBL6121005 (Eur J Med Chem, 2025) come the findings set out here.

Active and inactive are the calls of the source. The rule behind the calls is not given here.

Assay [1] concerns Mus musculus. The experiment in a line: Antialzheimer activity in scopolamine-induced ICR mouse assessed as increase in trajectory within target quadrant at 2.5 to 10 mg/kg, po administered daily and measured after 16 to 20 days by Morris water maze test. Format: functional, organism-based. As to conditions: dose 2.5-10 mg/kg, time 16-20 day.
Assay [2] has as its system Mus musculus. The experiment in a line: Antialzheimer activity in amyloid beta (1 to 42 residues) induced ICR mouse assessed as increase in distance travelled within target quadrant at 5 mg/kg, po administered daily and measured after 15 to 19 days by Morris water maze test. In kind it is functional, organism-based. The conditions noted are these: time 15-19 day.
Assay [3] has as its system Mus musculus. Description: Antialzheimer activity against amyloid beta (1 to 42)-induced ICR mouse memory impairment model assessed as decrease in movement distance at 2.5 to 10 mg/kg, po administered daily and measured after 15 to 19 days by Morris water maze test. As to conditions: dose 2.5-10 mg/kg, time 15-19 day. In kind it is functional, organism-based.
Assay [4] has as its system Mus musculus. The experiment in a line: Antialzheimer activity against scopolamine-induced ICR mouse cognitive deficit model assessed as latency time at 2.5 to 10 mg/kg, po administrated daily and measured on initial day of training by Morris water maze test. In kind it is functional. As to conditions: dose 2.5-10 mg/kg.
Assay [5] relates to PC-12. Description: Cytoprotective against rat PC12 cells assessed as cell viability at 50 uM preincubated for 24 hrs and measured after 4 hrs by CCK-8 assay. In kind it is functional, cell-based. (In general: Formazan colour is commonly taken as a measure of viable cells.)
Assay [6] has as its system PC-12. The experiment in a line: Neuroprotective activity against H2O2-induced rat PC12 cells assessed as protection against H2O2-induced apoptosis by measuring early apoptotic cells at 50 uM pretreated for 2 hrs followed by H2O2 addition and measured after 24 hrs by Annexin V-FITC/PI staining based flow cytometry analysis (reference value: 0.88 %). The conditions noted are these: time 26 hrs. Format: functional. On the technique in general: In flow cytometry, cells or beads pass a laser one at a time.

For assay [7], the system named is Mus musculus. The experiment in a line: Antialzheimer activity in amyloid beta (1 to 42 residues) induced ICR mouse memory impairment model assessed as increase in trajectory after platform removal at 2.5 to 10 mg/kg, po administered daily and measured after 15 to 19 days by Morris water maze test. Format: functional, organism-based. As to conditions: dose 2.5-10 mg/kg, time 15-19 day.

Assay [8] deals with PC-12. Description: Neuroprotective activity against H2O2-induced rat PC12 cells assessed as protection against H2O2-induced apoptosis by measuring viable cells at 50 uM pretreated for 2 hrs followed by H2O2 addition and measured after 24 hrs by Annexin V-FITC/PI staining based flow cytometry analysis (reference value: 90.8 %). Format: functional. As to conditions: time 26 hrs.

In assay [9] the test system is Mus musculus. The experiment in a line: Antialzheimer activity against amyloid beta (1 to 42)-induced ICR mouse cognitive deficit model assessed as increase in alternation performance at 5 mg/kg, po administered daily and measured on day 12 by Y-maze test relative to control. As to conditions: time 12 day. In kind it is functional.
Assay [10] deals with Mus musculus. Description: Antialzheimer activity against amyloid beta (1 to 42)-induced ICR mouse memory impairment model assessed as mean escape latency at 2.5 to 10 mg/kg, po administered daily and measured after 15 to 19 days by Morris water maze test. In kind it is functional, organism-based. As to conditions: dose 2.5-10 mg/kg, time 15-19 day.
The test system of assay [11] is PC-12. The experiment in a line: Neuroprotective activity against H2O2-induced rat PC12 cells assessed as protection against H2O2-induced apoptosis by measuring late apoptotic cells at 50 uM pretreated for 2 hrs followed by H2O2 addition and measured after 24 hrs by Annexin V-FITC/PI staining based flow cytometry analysis (reference value: 7.26 %). Format: functional. As to conditions: time 26 hrs.

The nature of assay [12]: Inhibition of H2O2-induced ROS release in rat PC12 cells assessed as mean fluorescence intensity at 50 uM preincubated for 2 hrs followed by H2O2 addition and measured after 24 hrs by DCFH-DA based flow cytometry analysis (reference value: 23904). In kind it is functional, PC-12. The conditions noted are these: time 26 hrs.
Assay [13] deals with Mus musculus. The experiment in a line: Antialzheimer activity against scopolamine-induced ICR mouse cognitive deficit model assessed as decrease in latency time at 2.5 to 10 mg/kg, po administrated daily and measured on last day of training by Morris water maze test. Format: functional, organism-based. The conditions noted are these: dose 2.5-10 mg/kg.
For assay [14], the system named is Mus musculus. The experiment in a line: Antialzheimer activity against scopolamine-induced ICR mouse cognitive deficit model assessed as decrease in movement distance at 2.5 to 10 mg/kg, po administrated daily and measured on last day of training by Morris water maze test. In kind it is functional, organism-based. The conditions noted are these: dose 2.5-10 mg/kg.

Assay [15] concerns PC-12. The experiment in a line: Neuroprotective activity against H2O2-induced rat PC12 cells assessed as protection against H2O2-induced apoptosis by measuring necrotic cells at 50 uM pretreated for 2 hrs followed by H2O2 addition and measured after 24 hrs by Annexin V-FITC/PI staining based flow cytometry analysis (reference value: 0.99 %). Format: functional. As to conditions: time 26 hrs.

The subject of assay [16] is Mus musculus. Description: Antialzheimer activity in amyloid beta (1 to 42 residues) induced ICR mouse assessed as increase in time spent within target quadrant at 5 mg/kg, po administered daily and measured after 15 to 19 days by Morris water maze test. Format: functional, organism-based. As to conditions: time 15-19 day.

Regarding `COc1ccc2c3c1O[C@H]1C[C@@H](O)C=C[C@@]31CCN(C)C2` [GALANTAMINE], the outcome with Mus musculus [1], with Mus musculus [2], with Mus musculus [3], in the assay with PC-12 [5], with Mus musculus [7] and with Mus musculus [10] was Active. Further, the outcome with Mus musculus [13], in the assay on Mus musculus [14] and in the assay with Mus musculus [16] was Active. Besides, the Time with Mus musculus [4] was 60 s. Further, the Activity with PC-12 [6] turned out to be 11.5%; in the assay with PC-12 [8] it was 70.8%; in the assay on Mus musculus [9] it was 72.92%; in the assay on PC-12 [11], 17.3%; in the assay on PC-12 [15], 1.89%. The Flu intensity in assay [12] is reported as 89205.
